Measurements from patent publication US4921865A, “Aminoacylates of glycerol acetal” (Societe de Conseils de Recherches et d'Applications …, priority 1987, dated 1990).

Tests used:
[1] = system: PAF-induced bronchoconstriction; experiment: PAF-induced bronchoconstriction in the guinea pig; assay type: in vivo; details: for Percentage Variation (bronchoconstriction): vs control; for inhibition of PAF-induced bronchoconstriction (in words): pyridinium compound 0.5, 1 and 5 mg/kg IV, quinolinium compound 0.5 and 1 mg/kg IV
Description: (§1) Male Guinea-pig (400-500 g) were anesthetized with urethane (1.5 g/kg: IP) prior to be tracheotomized and ventilated with a respiratory pump (UGO BASILE) (70-80 breath/minute, 1 ml air/100 g/breath) to abolish spontaneous respiration a pneumothorax was performed. The resistance to inflation was measured with a pressure transducer (UGO BASILE) against an initial pressure of 10 cm H2 O according to Konzett and Rossler. Animals were allocated into groups and were treated or not by the compounds of the invention (0.05, 0.1, 0.5, 1 and 5 mg/kg).The products were given IV 1 hour before challenge with PAF.
(§2) The animals were challenged with various doses of PAF ([…]) given intravenously, and the variations in the resistance to inflation were recorded.

[2] = system: PAF-induced thrombocytopenia; experiment: PAF-induced thrombocytopenia in the guinea pig; assay type: in vivo; details: for Percentage Variation (thrombocytopenia): vs control; for inhibition of PAF-induced thrombocytopenia (in words): pyridinium compound 0.5, 1 and 5 mg/kg IV, quinolinium compound 0.5 and 1 mg/kg IV; for Percentage Decrease in leukocyte number: thrombocytopenia
Description: as §1, §2
Blood samples were collected prior to and 1,5 and 10 minutes following to PAF-challenge. Forty μl of blood were diluted in 10 ml isoton (Coultronics, France); erythrocytes were lysed with Zapoglobin (France) prior leukocytes were counted in a coulter counter. To determine platelet number, 40 μl of blood were diluted in 2 ml isoton and centrifuged at 100 runs per minute for 30 secondes, 100 μl of the supernatant were collected and further diluted in 10 ml isoton prior counting in a coulter counter.

[3] = system: polymorphonuclear leukocytes (PMNs); experiment: antagonism of polymorphonuclear leukocyte aggregation induced by PAF; assay type: cell-based, rat (Wistar); details: rat PMNs, PAF 10^-8; for IC50: Leukocyte
Description: Polymorphonuclear leukocytes (PMNs) were obtained as described by A. W. Ford-Hutchinson et al. (Br - J. Pharmacol. 76, 367-371, 1982). Cell suspensions ([…]) were prepared from peritoneal exudates obtained after a 5 ml IP injection of sodium caseinate 12% (w/v) to male Wistar rats, 300 g body weight.
After centrifugation, cells were washed with Hanks and resuspended in MEM/Hepes 30 mM medium (PM=7.4) at a concentration of 10^7 cells/ml. Cytochalasin B (5 μg/ml) was added 10 minutes before trigering aggregation to amplify the PMNs aggregation. The light transmittance through the cell suspension (400 μl) was measured under a 900 R/mn magnetic stirring, with a dual beam aggregometer (Chronolog Corp. Coultronics.)
The control cuvet is the cell suspension diluted to 20% of the cell count with MEM and the difference represents 100% transmittance. Change in transmittance, which occurs when PAF is added, was continuously recorded.
Drugs solubilized in MEM/Hepes were added (4 μl) to PMNs suspension 2 minutes before PAF addition.

[4] = system: platelets (PAF induced platelet aggregation); experiment: inhibition of PAF-induced platelet aggregation in platelet rich plasma; assay type: cell-based, New Zealand rabbits; details: Oryctolagus cuniculus; rabbit platelet rich plasma, 2.5 nM PAF
Description: 1--INHIBITION OF THE PLATELETS AGGREGATION ON NEW ZEALAND RABBITS
The experimentation was conducted on platelets with plasma of New Zealand rabbits.
Blood samples were taken from auricular artery and placed in a citrate buffer (3.8 %; pH 7.4); blood was further centrifugated for 15 mn at 1200 RPM.
The tested sample was prepared in DMSO, then poured on platelets rich plasma for 1 mn, then a dose of 2.5 nM of PAF was added.
The determination is made on a Cronolog Coultronics apparatus which determines the transmission percentage corresponding to the maximum height of the peak before the desaggregation.
The percentage of variation of the inhibition with respect to the transmission percentage is calculated (control: pure DMSO).
This method was described in details in LABORATORY INVESTIGATIONS, Vol. 41, No. 3, p. 275, 1979, JEAN-PIERRE CAZENAVE, Dr. MED. , JACQUES BENVENISTE, Dr. MED., AND J. FRASER MUSTARD, M.D., "Aggregation of Rabbits Platelets by Platelet-Activating Factor Is Independent of the Release Reaction and the Arachidonate Pathway and Inhibited by Membrane-Active Drugs".
Five tests made on 5 different rabbits allowed us to calculate the IC50 of the various compounds using the linear regression test.

[5] = system: PAF-induced [Ca^2+ ]i mobilization, washed rabbits platelets; experiment: inhibition of intracytosolic free calcium mobilization induced by PAF in washed rabbit platelets; assay type: cell-based; details: PAF 2×10^-9 M; for inhibition of PAF-induced [Ca^2+ ]i mobilization (in words): 5×10^-7 M; for inhibition at 0.05 µM: Oryctolagus cuniculus, Platelet, 5×10^-8 M, read-out: inhibition of PAF effect on [Ca^2+ ]i
Description: Blood was taken from the auricular artery of the rabbit on citric acid/sodium citrate/dextrose and anticoagulan and the washed platelets were prepared according to Ardlie et al., Brit. J. Pharmacology, 19, 7-17, 1970. They were incubated with acetylsalicylic salt (100 μM, 30 minutes) to avoid thromboxane induced aggregation. They were then loaded with the fluorescent calcium indicator dye quin 2 by incubation with quin 2 aceto-methylester (15 μM in DMSO, 20 minutes at room temperature) which penetrates the cell membrane and after hydrolysed is trapped in the platelet. Drugs were preincubated with platelets for 15 minutes simultaneously to CP/CPK mixture which destroys secreted ADP.
Fluorescent measurement was then performed (excitation λ=339 nm, emission λ=494 nm) after PAF addition to platelet suspension. The fluorescence intensity is proportional to the cytosolic free calcium level [Ca^2+ ]i which can be quantified as described by Tsien et al., J. Cell Biol., 94, 325-334, 1982.

## CCCCCCCCCCCCCCCCCC1(C)OCC(COC(=O)CCCCC[n+]2cccc3ccccc32)O1 (stereo not drawn) [Example 10, 2-heptadecyl 2-methyl 4-[6'-(N-quinolinium)hexanoyloxymethyl) 1,3-dioxolanbromide]
[1]; 0.1 mg/kg IV
  Percentage Bronchoconstriction: 80.4 +/- 13.78%
  Percentage Variation (bronchoconstriction): -11.5%
[1]; 0.5 mg/kg IV
  Percentage Bronchoconstriction: 25.1 +/- 6.53%
  Percentage Variation (bronchoconstriction): -72.4%
[1]; 1 mg/kg IV
  Percentage Bronchoconstriction: 8.1 +/- 2.91%
  Percentage Variation (bronchoconstriction): -91.1%
[1]
  inhibition of PAF-induced bronchoconstriction (in words): inhibit
[2]; 0.1 mg/kg IV, 1 mn
  Percentage Variation (thrombocytopenia): -21.7%
  Percentage Decrease in leukocyte number: 51.1 +/- 12.1%
[2]; 0.1 mg/kg IV, 5 mn
  Percentage Variation (thrombocytopenia): 0%
  Percentage Decrease in leukocyte number: 49.1 +/- 8.8%
[2]; 0.1 mg/kg IV, 10 mn
  Percentage Variation (thrombocytopenia): -7.2%
  Percentage Decrease in leukocyte number: 45.0 +/- 9.7%
[2]; 0.5 mg/kg IV, 1 mn
  Percentage Variation (thrombocytopenia): -59.9%
  Percentage Decrease in leukocyte number: 26.2 +/- 6.3%
[2]; 0.5 mg/kg IV, 5 mn
  Percentage Variation (thrombocytopenia): -39.3%
  Percentage Decrease in leukocyte number: 29.8 +/- 1.7%
[2]; 0.5 mg/kg IV, 10 mn
  Percentage Variation (thrombocytopenia): -33.8%
  Percentage Decrease in leukocyte number: 32.1 +/- 5.8%
[2]; 1 mg/kg IV, 1 mn
  Percentage Variation (thrombocytopenia): -58.3%
  Percentage Decrease in leukocyte number: 19.3 +/- 1.4%
[2]; 1 mg/kg IV, 5 mn
  Percentage Variation (thrombocytopenia): -55.0%
  Percentage Decrease in leukocyte number: 22.1 +/- 2.5%
[2]; 1 mg/kg IV, 10 mn
  Percentage Variation (thrombocytopenia): -60.0%
  Percentage Decrease in leukocyte number: 19.4 +/- 3.6%
[2]
  inhibition of PAF-induced thrombocytopenia (in words): inhibit
[3]
  IC50: 1000 nM
  inhibition of PMN aggregation (in words): dose-dependently inhibit
[4]
  IC50: 303 nM
[5]
  inhibition of PAF-induced [Ca^2+ ]i mobilization (in words): totally inhibit
  inhibition at 0.05 µM: 75%

## CCCCCCCCCCCCCCCCCC1(C)OCC(COC(=O)CCCCC[n+]2ccccc2)O1 (stereo not drawn) [Example 9, 2-heptadecyl 2-methyl 4-[6'-(N-pyridinium)hexanoyloxymethyl] 1,3 dioxolan bromide]
[1]; 0.05 mg/kg IV
  Percentage Bronchoconstriction: 79.0 +/- 9.27%
  Percentage Variation (bronchoconstriction): -1.0%
[1]; 0.1 mg/kg IV
  Percentage Bronchoconstriction: 43.8 +/- 14.77%
  Percentage Variation (bronchoconstriction): -45.1%
[1]; 0.5 mg/kg IV
  Percentage Bronchoconstriction: 23.6 +/- 7.15%
  Percentage Variation (bronchoconstriction): -70.4%
[1]; 1 mg/kg IV
  Percentage Bronchoconstriction: 19.1 +/- 10.51%
  Percentage Variation (bronchoconstriction): -76.1%
[1]; 5 mg/kg IV
  Percentage Bronchoconstriction: 3.5 +/- 1.53%
  Percentage Variation (bronchoconstriction): -95.6%
[1]
  inhibition of PAF-induced bronchoconstriction (in words): inhibit
[2]; 0.05 mg/kg IV, 1 mn
  Percentage Variation (thrombocytopenia): -34.1%
  Percentage Decrease in leukocyte number: 45.2 +/- 1.20%
[2]; 0.05 mg/kg IV, 5 mn
  Percentage Variation (thrombocytopenia): +1.4%
  Percentage Decrease in leukocyte number: 43.0 +/- 4.80%
[2]; 0.05 mg/kg IV, 10 mn
  Percentage Variation (thrombocytopenia): -15.1%
  Percentage Decrease in leukocyte number: 36.1 +/- 2.41%
[2]; 0.1 mg/kg IV, 1 mn
  Percentage Variation (thrombocytopenia): -56.1%
  Percentage Decrease in leukocyte number: 30.1 +/- 13.72%
[2]; 0.1 mg/kg IV, 5 mn
  Percentage Variation (thrombocytopenia): -18.2%
  Percentage Decrease in leukocyte number: 34.7 +/- 3.60%
[2]; 0.1 mg/kg IV, 10 mn
  Percentage Variation (thrombocytopenia): -0.5%
  Percentage Decrease in leukocyte number: 42.3 +/- 4.79%
[2]; 0.5 mg/kg IV, 1 mn
  Percentage Variation (thrombocytopenia): -71.9%
  Percentage Decrease in leukocyte number: 19.3 +/- 10.19%
[2]; 0.5 mg/kg IV, 5 mn
  Percentage Variation (thrombocytopenia): -77.4%
  Percentage Decrease in leukocyte number: 9.6 +/- 12.15%
[2]; 0.5 mg/kg IV, 10 mn
  Percentage Variation (thrombocytopenia): -74.4%
  Percentage Decrease in leukocyte number: 10.9 +/- 9.94%
[2]; 1 mg/kg IV, 1 mn
  Percentage Variation (thrombocytopenia): -83.2%
  Percentage Decrease in leukocyte number: 11.5 +/- 6.21%
[2]; 1 mg/kg IV, 5 mn
  Percentage Variation (thrombocytopenia): -46.9%
  Percentage Decrease in leukocyte number: 22.5 +/- 3.27%
[2]; 1 mg/kg IV, 10 mn
  Percentage Variation (thrombocytopenia): -50.6%
  Percentage Decrease in leukocyte number: 21.0 +/- 3.87%
[2]; 5 mg/kg IV, 1 mn
  Percentage Variation (thrombocytopenia): -93.9%
  Percentage Decrease in leukocyte number: 4.2 +/- 2.35%
[2]; 5 mg/kg IV, 5 mn
  Percentage Variation (thrombocytopenia): -86.8%
  Percentage Decrease in leukocyte number: 5.6 +/- 1.84%
[2]; 5 mg/kg IV, 10 mn
  Percentage Variation (thrombocytopenia): -97.4%
  Percentage Decrease in leukocyte number: 1.1 +/- 1.15%
[2]
  inhibition of PAF-induced thrombocytopenia (in words): inhibit
[3]
  IC50: 500 nM
  inhibition of PMN aggregation (in words): dose-dependently inhibit
[4]
  IC50: 404 nM
[5]
  inhibition of PAF-induced [Ca^2+ ]i mobilization (in words): totally inhibit
  inhibition at 0.05 µM: 44%
